Experimental data as given in PubChem BioAssay (NCI).
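Briefly, cells in 96-well plates were exposed to five compound concentrations for 48 h, and endpoints were estimated by linear interpolation. Here, GI50 denotes the concentration required for 50% inhibition of growth. At the TGI there is no net growth.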

Legend:
Assay in all cases: NCI tumour cell line growth inhibition, 48 h
[1] = test system: M14 melanoma
[2] = test system: SNB-19 CNS
[3] = test system: DU-145 prostate
[4] = test system: NCI/ADR-RES ovarian
[5] = test system: U251 CNS
[6] = test system: TK-10 renal
[7] = test system: PC-3 prostate
[8] = test system: OVCAR-5 ovarian
[9] = test system: HS 578T breast
[10] = test system: HCC-2998 colon
[11] = test system: UO-31 renal
[12] = test system: OVCAR-8 ovarian
[13] = test system: COLO 205 colon
[14] = test system: RXF 393 renal
[15] = test system: ACHN renal
[16] = test system: EKVX NSCLC
[17] = test system: SF-539 CNS
[18] = test system: RPMI-8226 leukemia
[19] = test system: MCF7 breast
[20] = test system: UACC-62 melanoma
[21] = test system: T-47D breast
[22] = test system: SK-MEL-28 melanoma
[23] = test system: NCI-H460 lung
[24] = test system: NCI-H23 lung
[25] = test system: SN12C renal
[26] = test system: A549 NSCLC
[27] = test system: IGROV1 ovarian
[28] = test system: 786-0 renal
[29] = test system: NCI-H522 lung
[30] = test system: HOP-62 NSCLC
[31] = test system: SW-620 colon
[32] = test system: MDA-MB-435
[33] = test system: SR leukemia
[34] = test system: SK-MEL-2 melanoma
[35] = test system: CAKI-1 renal
[36] = test system: HCT-15 colon
[37] = test system: HOP-92 NSCLC
[38] = test system: SF-295 CNS
[39] = test system: BT-549 breast
[40] = test system: LOX IMVI melanoma
[41] = test system: OVCAR-4 ovarian
[42] = test system: OVCAR-3 ovarian
[43] = test system: SK-MEL-5 melanoma
[44] = test system: HCT-116 colon
[45] = test system: MDA-MB-231 breast
[46] = test system: HL-60(TB) leukemia
[47] = test system: KM12 colon
[48] = test system: K-562 leukemia
[49] = test system: SF-268 CNS
[50] = test system: UACC-257 melanoma

Compound `CCC(CC)c1nc(Nc2cccc(OC)c2)c2ccccc2n1` has a GI50 [1] of 11.3 µM, a TGI [1] of 18.5 µM and a GI50 [2] of 6.86 µM. It also gave a TGI [2] of 13.3 µM, a GI50 [3] of 6.48 µM and a TGI [3] of 12.8 µM. The GI50 [4] was 10.3 µM, the TGI [4] was 17.4 µM and the GI50 [5] was 7.98 µM. It also gave a TGI [5] of 14.7 µM, a GI50 [6] of 10.7 µM and a TGI [6] of 17.9 µM. For the same compound, the GI50 [7] was 6.86 µM, the TGI [7] was 13.3 µM and the GI50 [8] was 9.68 µM. The TGI [8] was 16.7 µM, the GI50 [9] was 7.71 µM and the TGI [9] was 15.4 µM. The GI50 [10] was 7.68 µM, the TGI [10] was 14.3 µM and the GI50 [11] was 6.95 µM. For the same compound, the TGI [11] was 13.4 µM, the GI50 [12] was 8.85 µM and the TGI [12] was 17.9 µM. The GI50 [13] was 11 µM, the TGI [13] was 18.3 µM and the GI50 [14] was 7.29 µM. For the same compound, the TGI [14] was 14.7 µM, the GI50 [15] was 7.71 µM and the TGI [15] was 14.4 µM. It also gave a GI50 [16] of 8.05 µM, a TGI [16] of 14.8 µM and a GI50 [17] of 8.29 µM. It also gave a TGI [17] of 15.1 µM, a GI50 [18] of 5.41 µM and a TGI [18] of 11.3 µM. The GI50 [19] was 10.6 µM, the TGI [19] was over 50 µM and the GI50 [20] was 7.28 µM. For the same compound, the TGI [20] was 13.8 µM, the GI50 [21] was 0.005 µM and the TGI [21] was 0.234 µM. For the same compound, the GI50 [22] was 6.72 µM, the TGI [22] was 13.1 µM and the GI50 [23] was 12.9 µM. The TGI [23] was 38.4 µM, the GI50 [24] was 8.27 µM and the TGI [24] was 15.1 µM. The GI50 [25] was 7.35 µM, the TGI [25] was 13.9 µM and the GI50 [26] was 7.11 µM. The TGI [26] was 13.6 µM, the GI50 [27] was 10.2 µM and the TGI [27] was 19.2 µM. It also gave a GI50 [28] of 11 µM, a TGI [28] of 18.2 µM and a GI50 [29] of 7.51 µM. It also gave a TGI [29] of 15.3 µM, a GI50 [30] of 8.06 µM and a TGI [30] of 14.8 µM. For the same compound, the GI50 [31] was 7.47 µM, the TGI [31] was 14.1 µM and the GI50 [32] was 6.92 µM. The TGI [32] was 13.4 µM, the GI50 [33] was 9.81 µM and the TGI [33] was 24.2 µM. The GI50 [34] was 7.11 µM, the TGI [34] was 15.2 µM and the GI50 [35] was 5.9 µM. It also gave a TGI [35] of 12 µM, a GI50 [36] of 7.45 µM and a TGI [36] of 14.1 µM. The GI50 [37] was 2.86 µM, the TGI [37] was 9.98 µM and the GI50 [38] was 6.55 µM. For the same compound, the TGI [38] was 12.9 µM, the GI50 [39] was 7.19 µM and the TGI [39] was 13.7 µM. The GI50 [40] was 6.43 µM, the TGI [40] was 12.7 µM and the GI50 [41] was 6.95 µM. It also gave a TGI [41] of 13.6 µM, a GI50 [42] of 5.9 µM and a TGI [42] of 12 µM. It also gave a GI50 [43] of 6.07 µM, a TGI [43] of 12.3 µM and a GI50 [44] of 8.31 µM. It also gave a TGI [44] of 15.1 µM, a GI50 [45] of 6.57 µM and a TGI [45] of 12.9 µM. The GI50 [46] was 12 µM, the TGI [46] was over 50 µM and the GI50 [47] was 6.11 µM. It also gave a TGI [47] of 12.3 µM, a GI50 [48] of 4.3 µM and a TGI [48] of over 50 µM. The GI50 [49] was 11.5 µM, the TGI [49] was 29.5 µM and the GI50 [50] was 8.06 µM. The TGI [50] was 14.8 µM.
